Columns and labels:
[1] = molecular target: Macrophage metalloelastase (Homo sapiens, UniProt P39900); experiment: Inhibition of MMP12 (unknown origin)
[2] = molecular target: T1, Bone morphogenetic protein 1 (Homo sapiens, UniProt P13497); experiment: Inhibition of recombinant human N-terminal 6His/flag-tagged BMP1 (121 to 721 residues) expressed in CHO cells using ((5-FAM)-ELIDQYDVQRDDSSDGSLED-K(5,6 TAMRA)-CONH2) as substrate preincubated for 10 mins followed by substrate addition measured after 60 mins
T1 sequence (P13497 whole entry): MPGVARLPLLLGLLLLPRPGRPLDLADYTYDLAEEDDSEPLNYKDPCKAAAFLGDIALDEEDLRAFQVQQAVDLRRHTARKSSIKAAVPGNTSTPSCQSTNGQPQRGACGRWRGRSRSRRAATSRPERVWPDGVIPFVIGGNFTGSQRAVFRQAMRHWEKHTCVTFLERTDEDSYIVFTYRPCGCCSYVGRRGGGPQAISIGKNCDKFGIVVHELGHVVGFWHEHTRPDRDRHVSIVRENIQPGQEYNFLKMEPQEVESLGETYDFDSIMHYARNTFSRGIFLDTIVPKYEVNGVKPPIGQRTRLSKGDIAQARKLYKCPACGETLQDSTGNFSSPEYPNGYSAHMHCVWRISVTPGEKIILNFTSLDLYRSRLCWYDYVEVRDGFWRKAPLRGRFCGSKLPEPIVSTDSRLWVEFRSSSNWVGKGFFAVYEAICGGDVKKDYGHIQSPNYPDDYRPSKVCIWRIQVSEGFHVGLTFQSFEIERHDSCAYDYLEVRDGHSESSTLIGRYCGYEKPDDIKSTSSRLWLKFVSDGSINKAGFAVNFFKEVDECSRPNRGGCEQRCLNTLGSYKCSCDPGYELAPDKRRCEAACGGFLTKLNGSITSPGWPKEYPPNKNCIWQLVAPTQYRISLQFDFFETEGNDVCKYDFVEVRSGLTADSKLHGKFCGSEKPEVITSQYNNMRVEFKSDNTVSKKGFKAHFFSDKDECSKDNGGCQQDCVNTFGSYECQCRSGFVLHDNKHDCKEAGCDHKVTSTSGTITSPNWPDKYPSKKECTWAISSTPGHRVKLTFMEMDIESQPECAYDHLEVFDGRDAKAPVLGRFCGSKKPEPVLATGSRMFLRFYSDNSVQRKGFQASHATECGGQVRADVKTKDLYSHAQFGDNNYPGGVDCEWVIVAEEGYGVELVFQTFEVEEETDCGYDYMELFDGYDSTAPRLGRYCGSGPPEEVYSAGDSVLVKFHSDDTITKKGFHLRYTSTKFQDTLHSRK

[3] = molecular target: T2, Bone morphogenetic protein 1 (Homo sapiens) (UniProt P13497); experiment: Binding affinity to BMP1 (unknown origin) assessed as dissociation rate constant using ((5-FAM)-ELIDQYDVQRDDSSDGSLED-K(5,6 TAMRA)-CONH2 as substrate preincubated for 0.5 hrs followed by substrate addition measured over 4 hrs by rapid jump dilution method
T2 sequence (whole entry): T1 sequence (P13497 whole entry)

Tolloid-like protein 2 = molecular target: T3, Tolloid-like protein 2 (Homo sapiens, UniProt Q9Y6L7); experiment: Binding affinity to TLL2 (unknown origin) using ((5-FAM)-ELIDQYDVQRDDSSDGSLED-K(5,6 TAMRA)-CONH2 as substrate incubated for 3.5 hrs followed by substrate addition by FRET assay
T3 sequence (Q9Y6L7 whole entry): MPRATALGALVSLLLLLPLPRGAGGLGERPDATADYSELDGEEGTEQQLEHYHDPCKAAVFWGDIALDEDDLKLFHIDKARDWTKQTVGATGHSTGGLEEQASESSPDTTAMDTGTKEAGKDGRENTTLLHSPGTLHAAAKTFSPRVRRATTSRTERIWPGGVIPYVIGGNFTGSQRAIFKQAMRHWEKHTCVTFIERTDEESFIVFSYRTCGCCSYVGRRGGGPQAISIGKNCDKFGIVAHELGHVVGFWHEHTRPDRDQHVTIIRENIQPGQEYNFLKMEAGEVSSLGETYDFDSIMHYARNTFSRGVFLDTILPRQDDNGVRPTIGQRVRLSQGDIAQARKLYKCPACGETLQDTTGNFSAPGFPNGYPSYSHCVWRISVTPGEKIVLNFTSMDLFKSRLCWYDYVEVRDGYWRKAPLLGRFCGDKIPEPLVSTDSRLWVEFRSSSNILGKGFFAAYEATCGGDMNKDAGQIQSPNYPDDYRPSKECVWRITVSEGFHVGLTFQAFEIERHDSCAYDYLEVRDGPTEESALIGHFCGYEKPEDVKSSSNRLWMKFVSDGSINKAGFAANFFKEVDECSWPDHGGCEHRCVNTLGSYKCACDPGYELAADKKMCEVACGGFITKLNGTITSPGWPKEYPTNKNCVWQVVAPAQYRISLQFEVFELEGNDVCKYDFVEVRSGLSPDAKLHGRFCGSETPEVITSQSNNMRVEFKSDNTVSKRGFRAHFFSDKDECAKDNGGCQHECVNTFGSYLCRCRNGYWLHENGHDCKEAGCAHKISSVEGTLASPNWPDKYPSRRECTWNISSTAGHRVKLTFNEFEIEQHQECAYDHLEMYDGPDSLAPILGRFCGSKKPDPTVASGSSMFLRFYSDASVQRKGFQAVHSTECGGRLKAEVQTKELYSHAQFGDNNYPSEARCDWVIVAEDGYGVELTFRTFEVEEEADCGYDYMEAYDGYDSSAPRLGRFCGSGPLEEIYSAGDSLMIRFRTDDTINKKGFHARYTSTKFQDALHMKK

[4] = molecular target: T2, Bone morphogenetic protein 1 (Homo sapiens); experiment: Binding affinity to BMP1 (unknown origin) assessed as association rate constant using ((5-FAM)-ELIDQYDVQRDDSSDGSLED-K(5,6 TAMRA)-CONH2 as substrate by FRET based stopped-flow spectrofluorometric method
Tolloid-like protein 1 = molecular target: T4, Tolloid-like protein 1 (Homo sapiens, UniProt O43897); experiment: Binding affinity to TLL1 (unknown origin) using ((5-FAM)-ELIDQYDVQRDDSSDGSLED-K(5,6 TAMRA)-CONH2 as substrate incubated for 3.5 hrs followed by substrate addition by FRET assay
T4 sequence (O43897 whole entry): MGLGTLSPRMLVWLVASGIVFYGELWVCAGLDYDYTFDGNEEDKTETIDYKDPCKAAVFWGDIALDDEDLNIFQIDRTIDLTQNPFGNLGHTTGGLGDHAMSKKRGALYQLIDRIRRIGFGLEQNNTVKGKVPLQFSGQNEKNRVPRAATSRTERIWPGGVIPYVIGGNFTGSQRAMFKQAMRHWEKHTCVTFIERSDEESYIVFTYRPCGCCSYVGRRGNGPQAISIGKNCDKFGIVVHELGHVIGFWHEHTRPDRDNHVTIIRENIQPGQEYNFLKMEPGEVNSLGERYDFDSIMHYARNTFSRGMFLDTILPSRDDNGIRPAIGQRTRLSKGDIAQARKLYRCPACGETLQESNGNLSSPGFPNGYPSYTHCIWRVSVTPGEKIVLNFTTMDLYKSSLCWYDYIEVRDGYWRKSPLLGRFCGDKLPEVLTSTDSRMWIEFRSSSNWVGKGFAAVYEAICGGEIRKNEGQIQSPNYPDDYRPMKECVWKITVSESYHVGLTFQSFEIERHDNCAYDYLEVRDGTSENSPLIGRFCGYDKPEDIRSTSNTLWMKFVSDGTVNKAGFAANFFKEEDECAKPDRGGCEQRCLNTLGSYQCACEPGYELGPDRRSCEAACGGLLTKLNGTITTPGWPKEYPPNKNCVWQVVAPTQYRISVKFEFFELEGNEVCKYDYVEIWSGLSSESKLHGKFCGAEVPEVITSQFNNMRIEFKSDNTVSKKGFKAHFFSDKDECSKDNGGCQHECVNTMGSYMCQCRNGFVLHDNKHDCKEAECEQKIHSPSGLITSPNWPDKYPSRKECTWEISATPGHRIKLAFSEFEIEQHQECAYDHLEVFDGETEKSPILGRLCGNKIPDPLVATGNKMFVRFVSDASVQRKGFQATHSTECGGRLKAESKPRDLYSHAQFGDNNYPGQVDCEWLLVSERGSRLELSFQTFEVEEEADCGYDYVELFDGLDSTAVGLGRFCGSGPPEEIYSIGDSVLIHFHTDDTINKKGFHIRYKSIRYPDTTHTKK

[5] = Mean residence time in sc dosed dog; format: ADME, organism-based, Canis lupus familiaris; settings: in vivo
Rattus norvegicus = experiment: Dose normalized AUC in subcutaneously dosed rat; format: ADME, organism-based; settings: in vivo, sc
[6] = molecular target: T1, Bone morphogenetic protein 1; experiment: Binding affinity to BMP1 (unknown origin) using ((5-FAM)-ELIDQYDVQRDDSSDGSLED-K(5,6 TAMRA)-CONH2 as substrate preincubated for 3 hrs followed by substrate addition measured for 120 mins by FRET assay
[7] = Mean residence time in sc dosed rat; format: ADME, organism-based; settings: in vivo
Canis familiaris = experiment: Dose normalized AUC in subcutaneously dosed dog; format: ADME, organism-based, Canis lupus familiaris; settings: in vivo, sc
[8] = molecular target: T2, Bone morphogenetic protein 1 (Homo sapiens); experiment: Binding affinity to BMP1 (unknown origin) assessed as half life using ((5-FAM)-ELIDQYDVQRDDSSDGSLED-K(5,6 TAMRA)-CONH2 as substrate preincubated for 0.5 hrs followed by substrate addition measured over 4 hrs by rapid jump dilution method

Sequence of Macrophage metalloelastase (P39900 whole entry, the tested form may be a part): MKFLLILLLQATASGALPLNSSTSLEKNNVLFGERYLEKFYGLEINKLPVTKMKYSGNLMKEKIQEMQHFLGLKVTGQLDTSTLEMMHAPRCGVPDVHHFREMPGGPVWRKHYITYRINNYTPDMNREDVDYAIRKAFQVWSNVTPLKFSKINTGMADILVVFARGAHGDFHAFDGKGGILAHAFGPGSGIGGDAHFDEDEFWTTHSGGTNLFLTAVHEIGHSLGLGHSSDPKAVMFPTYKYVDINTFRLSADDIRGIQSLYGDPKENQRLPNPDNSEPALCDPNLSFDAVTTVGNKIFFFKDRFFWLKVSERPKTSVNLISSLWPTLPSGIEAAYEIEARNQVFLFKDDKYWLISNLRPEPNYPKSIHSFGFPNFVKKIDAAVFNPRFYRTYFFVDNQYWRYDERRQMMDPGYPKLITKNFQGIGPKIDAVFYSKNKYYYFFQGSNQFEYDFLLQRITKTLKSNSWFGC

IC50 [1] [nM] | IC50 [2] [nM] | further results | Compound
400 | 160 | – | CCCCC[C@H](CN(O)C=O)C(=O)NCNC(=O)c1cc2cccc(OC)c2o1
– | < 1 | – | CCCCC[C@@H](C(=O)NCNC(=O)c1ccc(-c2ccc(C(=O)O)c(OCC)c2)o1)[C@@H](CC)N(O)C=O
– | < 1 | – | CCCCC[C@@H](C(=O)NCNC(=O)c1ccc(-c2cc(OCC)cc(C(=O)N[C@@H](CC(=O)O)C(=O)O)c2)o1)[C@@H](CC)N(O)C=O
– | < 1 | – | CCCCC[C@@H](C(=O)NCNC(=O)c1ccc(-c2ccc(P(=O)(O)O)c(OCC)c2)o1)[C@@H](CC)N(O)C=O
4000 | 160 | – | COc1cccc2cc(C(=O)NCNC(=O)[C@H](Cc3ccccc3)CN(O)C=O)oc12
– | < 1 | K [3]: 0.93 h⁻¹; Ki (Tolloid-like protein 2): 0.26 nM; K [4]: 3.6e+06 M⁻¹ s⁻¹; Ki (Tolloid-like protein 1): 0.24 nM; MRT [5]: > 2 h; AUC/dose (Rattus norvegicus): 2.3 kg·h/L; Ki [6]: 0.04 nM; MRT [7]: > 2 h; AUC/dose (Canis familiaris): 5 kg·h/L; T1/2 [8]: 0.75 h | CCCCC[C@@H](C(=O)NCNC(=O)c1ccc(-c2cc(OCC)cc(P(=O)(O)O)c2)o1)[C@@H](CC)N(O)C=O
> 10000 | 6300 | – | COc1cccc2cc(C(=O)NCNC(=O)CCN(O)C=O)oc12
– | 8 | – | CCCCC[C@H](CN(O)C=O)C(=O)NCNC(=O)c1ccc(-c2cccc(C(=O)O)c2)o1
– | 20 | – | CCCCC[C@H](CN(O)C=O)C(=O)NCNC(=O)c1ccc(-c2cccc(OC)c2)o1
1250 | 1250 | – | CCC[C@H](CN(O)C=O)C(=O)NCNC(=O)c1cc2cccc(OC)c2o1
> 10000 | 126 | – | CCCCC[C@@H](C(=O)NCNC(=O)c1cc2cccc(OC)c2o1)[C@@H](CC)N(O)C=O
– | 1 | – | CCCCC[C@H](CN(O)C=O)C(=O)NCNC(=O)c1ccc(-c2cccc(OCC)c2)o1
– | < 1 | K [3]: 2.3 h⁻¹; Ki (Tolloid-like protein 2): 0.039 nM; K [4]: 5.5e+07 M⁻¹ s⁻¹; Ki (Tolloid-like protein 1): 0.031 nM; MRT [5]: > 2 h; AUC/dose (Rattus norvegicus): 0.27 kg·h/L; Ki [6]: 0.0068 nM; MRT [7]: > 2 h; AUC/dose (Canis familiaris): 0.85 kg·h/L; T1/2 [8]: 0.3 h | CCCCC[C@@H](C(=O)NCNC(=O)c1ccc(-c2ccc(C(=O)N[C@@H](CC(=O)O)C(=O)O)c(OCC)c2)o1)[C@@H](CC)N(O)C=O
> 10000 | 4000 | – | CCCCC[C@@H](CN(O)C=O)C(=O)NCNC(=O)c1cc2cccc(OC)c2o1
200 | > 10000 | – | CCCCC[C@@H](C(=O)NCNC(=O)c1cc2cccc(OC)c2o1)[C@H](CC)N(O)C=O
– | < 1 | – | CCCCC[C@@H](C(=O)NCNC(=O)c1ccc(-c2cc(OCC)cc(C(=O)O)c2)o1)[C@@H](CC)N(O)C=O
– | 1 | – | CCCCC[C@H](CN(O)C=O)C(=O)NCNC(=O)c1ccc(-c2ccc(C(=O)O)cc2)o1
– | 25 | – | CCCCC[C@H](CN(O)C=O)C(=O)NCNC(=O)c1ccc(-c2ccccc2)o1

— ChEMBL document CHEMBL4196124, “Reverse Hydroxamate Inhibitors of Bone Morphogenetic Protein 1” (ACS Med Chem Lett, 2018)
